Test results from ChEMBL document CHEMBL1201862, “PubChem BioAssay data set” (2004).
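Exposure lasted 48 hours, with cells grown in 96-well plates and compounds tested at five concentrations. Here, GI50 denotes the concentration required for 50% inhibition of growth.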 Calls of active or inactive are those of the source. Cut-off read from the data, not from the text of the source: active = GI50 up to about 1.1 µM and inactive = higher.

How the values were obtained:
Test in all cases: NCI-60 cell line screen, 48 h
IGROV-1 = test system: IGROV-1
ACHN = test system: ACHN
Malme-3M = test system: Malme-3M
MOLT-4 = test system: MOLT-4
MDA-N = test system: MDA-N
A549 = test system: A549
NCI/ADR-RES = test system: NCI/ADR-RES
TK-10 = test system: TK-10
HCT-116 = test system: HCT-116
LOX IMVI = test system: LOX IMVI
OVCAR-5 = test system: OVCAR-5
NCI-H460 = test system: NCI-H460
SK-OV-3 = test system: SK-OV-3
MDA-MB-231 = test system: MDA-MB-231
RXF 393 = test system: RXF 393
OVCAR-4 = test system: OVCAR-4
SNB-19 = test system: SNB-19
T47D = test system: T47D
U-251 = test system: U-251
SR = test system: SR

Measured: GI50

CC1(C)C(N2CCOCC2)CS1(=O)=O (stereo not given)
inactive: IGROV-1 > 10 µM | ACHN > 10 µM | Malme-3M > 10 µM | MOLT-4 > 10 µM | MDA-N > 10 µM | A549 > 10 µM | NCI/ADR-RES > 10 µM | TK-10 > 10 µM | HCT-116 > 10 µM | LOX IMVI > 10 µM | OVCAR-5 > 10 µM | NCI-H460 > 10 µM | SK-OV-3 > 10 µM | MDA-MB-231 > 10 µM | RXF 393 > 10 µM | OVCAR-4 > 10 µM | SNB-19 > 10 µM | T47D > 10 µM | U-251 > 10 µM

CCOC(=O)C(C)c1nc2ccc(C(F)(F)F)cc2[nH]c1=O (stereo not given)
inactive: ACHN > 100 µM | Malme-3M 97.7 µM | MOLT-4 50.2 µM | MDA-N 64.1 µM | A549 73.5 µM | NCI/ADR-RES 37.4 µM | TK-10 60.7 µM | HCT-116 72.8 µM | LOX IMVI 66.2 µM | OVCAR-5 > 100 µM | NCI-H460 84.9 µM | SK-OV-3 > 100 µM | MDA-MB-231 77.1 µM | RXF 393 64.3 µM | OVCAR-4 42.5 µM | SNB-19 > 100 µM | T47D 23.8 µM | U-251 > 100 µM

S=CN1CCCCC1
inactive: IGROV-1 > 100 µM | ACHN > 100 µM | Malme-3M > 100 µM | MOLT-4 > 100 µM | MDA-N > 100 µM | A549 > 100 µM | NCI/ADR-RES > 100 µM | TK-10 > 100 µM | HCT-116 > 100 µM | SR > 100 µM | LOX IMVI > 100 µM | OVCAR-5 > 100 µM | NCI-H460 > 100 µM | SK-OV-3 > 100 µM | MDA-MB-231 > 100 µM | SNB-19 > 100 µM | T47D > 100 µM | U-251 > 100 µM

N#Cc1c(O)c2ccccc2[nH]c1=O
inactive: IGROV-1 > 100 µM | ACHN > 100 µM | Malme-3M > 100 µM | MOLT-4 > 100 µM | MDA-N > 100 µM | A549 > 100 µM | NCI/ADR-RES > 100 µM | TK-10 > 100 µM | HCT-116 > 100 µM | LOX IMVI > 100 µM | OVCAR-5 > 100 µM | SK-OV-3 > 100 µM | MDA-MB-231 > 100 µM | RXF 393 > 100 µM | OVCAR-4 > 100 µM | SNB-19 > 100 µM | T47D > 100 µM | U-251 > 100 µM

CCOC(=O)c1c(SC(=O)/C=C/c2ccccc2)n(-c2ccccc2)c(=S)n(-c2ccccc2)c1=O
inactive: IGROV-1 > 100 µM | ACHN > 100 µM | Malme-3M > 100 µM | MOLT-4 > 100 µM | A549 > 100 µM | NCI/ADR-RES > 100 µM | TK-10 > 100 µM | HCT-116 > 100 µM | SR > 100 µM | LOX IMVI > 100 µM | OVCAR-5 > 100 µM | NCI-H460 > 100 µM | SK-OV-3 > 100 µM | MDA-MB-231 > 100 µM | RXF 393 > 100 µM | OVCAR-4 > 100 µM | SNB-19 > 100 µM | T47D > 100 µM | U-251 > 100 µM

O=C(O)c1nc2cc(C(F)(F)F)ccc2[nH]c1=O
inactive: IGROV-1 > 100 µM | ACHN > 100 µM | Malme-3M > 100 µM | MOLT-4 > 100 µM | MDA-N > 100 µM | A549 > 100 µM | NCI/ADR-RES > 100 µM | TK-10 > 100 µM | HCT-116 > 100 µM | SR > 100 µM | LOX IMVI > 100 µM | OVCAR-5 > 100 µM | NCI-H460 > 100 µM | SK-OV-3 > 100 µM | MDA-MB-231 > 100 µM | OVCAR-4 > 100 µM | SNB-19 > 100 µM | T47D > 100 µM | U-251 > 100 µM

CC(=O)NCC1OC2COC(c3ccccc3)OC2C2N=C(c3ccccc3)OC12 (stereo not given)
inactive: ACHN 45.5 µM | Malme-3M 58.7 µM | MOLT-4 43.2 µM | MDA-N 39.1 µM | A549 37.8 µM | NCI/ADR-RES 42.5 µM | TK-10 58.2 µM | HCT-116 38.4 µM | LOX IMVI 79.6 µM | OVCAR-5 > 100 µM | NCI-H460 60.7 µM | SK-OV-3 74.1 µM | MDA-MB-231 > 100 µM | RXF 393 41.7 µM | OVCAR-4 85.9 µM | SNB-19 > 100 µM | T47D 19.1 µM | U-251 > 100 µM

OCCSCCCSCCO
inactive: IGROV-1 > 100 µM | MOLT-4 32.1 µM | MDA-N > 100 µM | A549 > 100 µM | NCI/ADR-RES > 100 µM | TK-10 > 100 µM | HCT-116 > 100 µM | SR 39.9 µM | LOX IMVI > 100 µM | OVCAR-5 > 100 µM | NCI-H460 34.8 µM | SK-OV-3 > 100 µM | MDA-MB-231 > 100 µM | OVCAR-4 > 100 µM | SNB-19 > 100 µM | T47D > 100 µM | U-251 > 100 µM

NC(=S)NS(=O)(=O)c1ccc(Cl)cc1
inactive: IGROV-1 > 100 µM | ACHN > 100 µM | Malme-3M > 100 µM | MOLT-4 > 100 µM | MDA-N > 100 µM | A549 > 100 µM | NCI/ADR-RES > 100 µM | TK-10 > 100 µM | HCT-116 > 100 µM | LOX IMVI > 100 µM | OVCAR-5 > 100 µM | NCI-H460 > 100 µM | SK-OV-3 > 100 µM | MDA-MB-231 > 100 µM | RXF 393 > 100 µM | OVCAR-4 > 100 µM | SNB-19 > 100 µM | T47D > 100 µM | U-251 > 100 µM

BrCCCCCOc1ccc(-c2c3ccccc3c(-c3ccc(OCCCCCBr)cc3)c3ccccc23)cc1
inactive: IGROV-1 > 100 µM | ACHN > 100 µM | MOLT-4 > 100 µM | MDA-N > 100 µM | A549 > 100 µM | NCI/ADR-RES > 100 µM | TK-10 > 100 µM | HCT-116 > 100 µM | SR > 100 µM | OVCAR-5 > 100 µM | NCI-H460 > 100 µM | SK-OV-3 > 100 µM | MDA-MB-231 > 100 µM | RXF 393 > 100 µM | OVCAR-4 > 100 µM | SNB-19 > 100 µM | T47D > 100 µM | U-251 > 100 µM

Cc1ccc(/N=N/C(=O)NNc2ccc(C)c([N+](=O)[O-])c2)cc1[N+](=O)[O-]
inactive: IGROV-1 17.7 µM | ACHN 24.8 µM | Malme-3M 30.8 µM | MOLT-4 12.5 µM | MDA-N 32.7 µM | A549 28.8 µM | TK-10 45.1 µM | HCT-116 23.7 µM | SR 18.9 µM | LOX IMVI 17.3 µM | OVCAR-5 30.1 µM | NCI-H460 28.6 µM | MDA-MB-231 36.6 µM | OVCAR-4 19.4 µM | SNB-19 36.3 µM | T47D 4.45 µM | U-251 29.9 µM
